Common to all, as to format: biochemical
For experiment [1], the target named is T1, Human recombinant PDE2A (hPDE2A) (Homo sapiens, UniProt O00408).
T1 construct: His tag (inferred from metal chelate purification); made in house; host or cells: Sf9 insect cells (baculovirus)
Nature of the experiment: In vitro assay PDE2A (SPA, 3H-cGMP hydrolysis). To be noted: for IC50: read-out: hPDE2A pIC50 (converted); for Emax: read-out: hPDE2A Emax.

The target in experiment [2] is T2, Human recombinant PDE10A (hPDE10A) (Homo sapiens, UniProt Q9Y233).
T2 construct: His tag (inferred from metal chelate purification); made in house; host or cells: Sf9 insect cells (baculovirus)
T2 sequence (Q9Y233 267-1055): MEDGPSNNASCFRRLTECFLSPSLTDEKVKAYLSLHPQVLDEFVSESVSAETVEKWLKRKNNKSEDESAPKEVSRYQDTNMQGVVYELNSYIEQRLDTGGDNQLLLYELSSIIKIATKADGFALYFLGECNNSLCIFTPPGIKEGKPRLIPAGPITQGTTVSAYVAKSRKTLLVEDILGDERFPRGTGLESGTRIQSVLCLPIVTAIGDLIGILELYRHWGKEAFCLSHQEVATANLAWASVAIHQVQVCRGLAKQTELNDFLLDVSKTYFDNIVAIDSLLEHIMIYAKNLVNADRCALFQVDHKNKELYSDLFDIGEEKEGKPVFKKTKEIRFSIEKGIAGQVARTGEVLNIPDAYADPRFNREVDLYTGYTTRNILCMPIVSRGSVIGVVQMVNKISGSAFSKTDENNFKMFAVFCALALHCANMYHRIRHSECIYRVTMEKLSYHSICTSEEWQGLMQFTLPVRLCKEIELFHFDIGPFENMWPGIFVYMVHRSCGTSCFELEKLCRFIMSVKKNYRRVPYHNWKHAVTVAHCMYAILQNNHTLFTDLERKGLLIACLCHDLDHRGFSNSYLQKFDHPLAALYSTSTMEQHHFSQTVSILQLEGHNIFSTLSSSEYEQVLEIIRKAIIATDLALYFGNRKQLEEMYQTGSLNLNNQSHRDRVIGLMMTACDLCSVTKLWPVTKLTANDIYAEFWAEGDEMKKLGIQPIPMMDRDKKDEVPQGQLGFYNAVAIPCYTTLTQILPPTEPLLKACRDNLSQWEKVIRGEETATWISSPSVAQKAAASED
Nature of the experiment: In vitro assay PDE10A, human clone (SPA, 3H-cAMP hydrolysis). An outline of the steps:
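Human recombinant PDE10A was expressed in Sf9 cells via baculovirus and incubated with compound in 50 mM Tris pH 7.8, 8.3 mM MgCl2, 1.7 mM EGTA. Substrate was 60 nM cAMP plus 0.008 μCi 3H-cAMP for 60 min at room temperature, read by SPA scintillation counting. Controls used 1% DMSO, and blanks omitted enzyme.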

Experiment [3] deals with T3, Human recombinant PDE3A (hPDE3A) (Homo sapiens, UniProt Q14432).
T3 construct: purchased Scottish Biomedical; host or cells: Sf9 insect cells
T3 sequence (Q14432 whole entry): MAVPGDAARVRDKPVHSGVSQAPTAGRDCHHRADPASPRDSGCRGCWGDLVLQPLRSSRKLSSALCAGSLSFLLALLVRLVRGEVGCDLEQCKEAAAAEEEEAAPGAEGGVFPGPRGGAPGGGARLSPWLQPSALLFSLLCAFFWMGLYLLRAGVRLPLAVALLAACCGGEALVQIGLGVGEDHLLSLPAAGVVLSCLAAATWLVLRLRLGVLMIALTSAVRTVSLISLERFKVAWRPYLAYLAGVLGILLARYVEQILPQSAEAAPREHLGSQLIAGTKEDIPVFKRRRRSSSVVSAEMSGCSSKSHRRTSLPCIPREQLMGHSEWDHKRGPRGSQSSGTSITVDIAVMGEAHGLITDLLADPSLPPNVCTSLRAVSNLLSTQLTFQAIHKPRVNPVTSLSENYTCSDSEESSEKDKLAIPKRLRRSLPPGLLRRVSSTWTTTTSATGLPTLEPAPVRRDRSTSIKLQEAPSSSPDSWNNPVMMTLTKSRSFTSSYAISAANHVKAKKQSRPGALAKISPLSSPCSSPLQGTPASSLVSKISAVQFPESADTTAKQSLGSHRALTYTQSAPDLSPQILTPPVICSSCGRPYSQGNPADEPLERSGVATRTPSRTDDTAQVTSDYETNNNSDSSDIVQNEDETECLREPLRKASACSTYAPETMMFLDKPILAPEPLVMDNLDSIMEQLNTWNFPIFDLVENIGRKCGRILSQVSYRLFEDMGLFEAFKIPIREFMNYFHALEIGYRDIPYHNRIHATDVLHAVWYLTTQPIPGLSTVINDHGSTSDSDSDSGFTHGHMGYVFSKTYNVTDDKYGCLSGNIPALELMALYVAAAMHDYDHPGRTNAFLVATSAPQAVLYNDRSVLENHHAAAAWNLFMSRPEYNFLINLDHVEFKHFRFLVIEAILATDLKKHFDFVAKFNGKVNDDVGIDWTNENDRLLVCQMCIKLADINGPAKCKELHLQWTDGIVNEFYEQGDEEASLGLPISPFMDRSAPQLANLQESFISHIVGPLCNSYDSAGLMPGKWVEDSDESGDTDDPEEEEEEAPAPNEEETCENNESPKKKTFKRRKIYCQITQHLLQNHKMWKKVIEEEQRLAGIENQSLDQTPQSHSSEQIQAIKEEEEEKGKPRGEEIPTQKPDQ
The experiment is described as follows: In vitro assay PDE3A (SPA, 3H-cAMP hydrolysis).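 On all read-outs here: the method names PDE3A and the table heading PDE3B.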 To be noted: for IC50: hPDE3B pIC50, read-out: pIC50 (converted); for Emax: read-out: hPDE3B Emax, read-out: Emax. In outline: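 Human PDE3A, cloned from brain, as partially purified Sf9 lysate. Substrate 0.4 μM cAMP plus [3H]-cAMP (2.4 μCi/ml final) in 50 mM Tris pH 7.8, 8.3 mM MgCl2, 1.7 mM EGTA, 60 min at room temperature, 1% DMSO final. Hydrolysis read by SPA scintillation counting against no-enzyme blanks and DMSO controls.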

Setting [4] is: human recombinant PDE2A, 10 μM cGMP substrate.
Where [5] appears, read: human clone (h), default, read-out: hPDE10A2 Emax.
Setting [6] is: human clone (h), default, read-out: hPDE10A2 pIC50 (converted).
Where [7] appears, read: human clone by default (no (r) mark), read-out: hPDE10A2 or rPDE10A2 Emax.
Where [8] appears, read: human clone by default (no (r) mark), read-out: hPDE10A2 or rPDE10A2 pIC50 (converted).

Where two headings read alike, the source gives them in different places.

The source of these data is patent publication US10947242B2, “[1,2,4]triazolo[1,5and#8208;A]pyrimidine compounds as PDE2 inhibitors” (Janssen Pharmaceutica NV, priority 2016, dated 2021).

What is called Emax is the greatest response seen or fitted, relative to the assay's reference.

T1 sequence (O00408 whole entry): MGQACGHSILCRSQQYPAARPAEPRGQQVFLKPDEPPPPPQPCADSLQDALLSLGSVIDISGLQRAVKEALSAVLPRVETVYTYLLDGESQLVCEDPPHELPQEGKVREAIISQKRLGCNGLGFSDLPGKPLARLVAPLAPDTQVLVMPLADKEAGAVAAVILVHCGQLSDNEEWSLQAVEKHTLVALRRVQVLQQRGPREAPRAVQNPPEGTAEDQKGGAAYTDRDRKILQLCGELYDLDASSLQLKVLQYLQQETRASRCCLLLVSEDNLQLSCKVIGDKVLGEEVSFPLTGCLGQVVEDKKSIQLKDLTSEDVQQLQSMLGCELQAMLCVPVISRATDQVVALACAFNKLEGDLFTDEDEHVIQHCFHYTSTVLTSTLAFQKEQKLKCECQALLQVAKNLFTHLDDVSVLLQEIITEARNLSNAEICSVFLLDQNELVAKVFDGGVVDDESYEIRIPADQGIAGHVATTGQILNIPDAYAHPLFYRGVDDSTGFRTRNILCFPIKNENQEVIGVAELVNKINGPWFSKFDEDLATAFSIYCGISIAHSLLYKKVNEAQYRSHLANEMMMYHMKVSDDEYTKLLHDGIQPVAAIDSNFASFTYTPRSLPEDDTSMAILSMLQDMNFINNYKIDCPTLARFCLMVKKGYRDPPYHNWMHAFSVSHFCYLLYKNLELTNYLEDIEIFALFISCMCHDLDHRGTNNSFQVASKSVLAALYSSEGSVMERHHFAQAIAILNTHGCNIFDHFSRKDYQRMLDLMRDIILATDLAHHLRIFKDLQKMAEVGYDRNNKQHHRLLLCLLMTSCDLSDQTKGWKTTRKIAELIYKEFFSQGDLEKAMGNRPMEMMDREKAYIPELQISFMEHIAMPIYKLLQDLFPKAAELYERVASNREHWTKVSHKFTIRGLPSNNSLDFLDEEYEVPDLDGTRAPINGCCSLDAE

As for `Cc1cc(C(=O)N2CC[C@@H](C)[C@H](c3cc(C(F)F)nc4ncnn34)C2)c(C)s1` [Compound 65], the IC50 in experiment [1] (setting [4]) was 1.26 nM; in experiment [1], 1.26 nM; in experiment [2] (setting [6]) it was 251 nM; in experiment [3], 6760 nM. For the same compound, the Emax in experiment [1] (human recombinant PDE2A) came out at 100%; in experiment [1], 100%; in experiment [2] (setting [5]), 95%; in experiment [3], 70%.
As to `COc1nc(C2CC2)cc(C(=O)N2CC[C@@H](C)[C@H](c3cc(C(F)F)nc4ncnn34)C2)c1F` [Compound 276], the Emax was determined as 100% in experiment [1], 98% in experiment [2] (setting [7]) and 93% in experiment [3]. Further, the IC50 in experiment [1] was 2.24 nM; in experiment [2] (setting [8]), 166 nM; in experiment [3] it was 1290 nM.
For the compound `COc1ccc(C(=O)N2CC[C@@H](C)[C@H](c3cc(C(F)F)nc4ncnn34)C2)cc1C#N` [Compound 265], the Emax in experiment [1] came to 102%; in experiment [2] (setting [5]) it was 98%; in experiment [2] (setting [7]), 98%; in experiment [3], 55%. In addition, the IC50 in experiment [1] is 2.4 nM; in experiment [2] (setting [6]), 37.2 nM; in experiment [2] (setting [8]), 37.2 nM; in experiment [3], 6310 nM.
Take `C[C@@H]1CCN(C(=O)c2cc3n(n2)CCO3)C[C@H]1c1cc(C(F)F)nc2ncnn12` [Compound 166]: the IC50 in experiment [1] (setting [4]) is 93.3 nM; in experiment [1], 93.3 nM; in experiment [2] (setting [6]), 2240 nM; in experiment [3] it was more than 10000 nM. The Emax in experiment [1] (human recombinant PDE2A) came to 98%; in experiment [1], 98%; in experiment [2] (setting [5]), 81%; in experiment [3], 32%.
For `Cc1ncoc1C(=O)N1CC[C@@H](C)[C@H](c2cc(C(F)F)nc3ncnn23)C1` [Compound 156], the IC50 is 58.9 nM in experiment [1] (setting [4]), 58.9 nM in experiment [1], 2000 nM in experiment [2] (setting [6]) and more than 10000 nM in experiment [3]. For the same compound, the Emax in experiment [1] (human recombinant PDE2A) stood at 100%; in experiment [1], 100%; in experiment [2] (setting [5]) it was 81%; in experiment [3], 19%.
As for `Cc1ncc(C(=O)N2CC[C@@H](C)[C@H](c3cc(C(F)F)nc4ncnn34)C2)cn1` [Compound 244], the Emax came out at 92% in experiment [1], 54% in experiment [2] (setting [5]), 54% in experiment [2] (setting [7]) and 12% in experiment [3]. Further, the IC50 in experiment [1] is 676 nM; in experiment [2] (setting [6]), 9330 nM; in experiment [2] (setting [8]), 9330 nM; in experiment [3] it was more than 10000 nM.
Regarding `O=C(c1cccc2ccccc12)N1[C@H]2CC[C@H](c3cc(C(F)F)nc4ncnn34)[C@@H]1CC2` [Compound 320], the Emax in experiment [1] amounted to 100%; in experiment [2] (setting [7]), 62%; in experiment [3] it was 47%. Moreover, the IC50 was 53.7 nM in experiment [1], 7080 nM in experiment [2] (setting [8]) and more than 10000 nM in experiment [3].
Regarding `C[C@@H]1CCN(C(=O)c2cc(F)ccn2)C[C@H]1c1cc(C(F)F)nc2ncnn12` [Compound 250], the Emax in experiment [1] was 99%; in experiment [2] (setting [5]), 64%; in experiment [2] (setting [7]) it was 64%; in experiment [3], 28%. For the same compound, the IC50 is 132 nM in experiment [1], 4900 nM in experiment [2] (setting [6]), 4900 nM in experiment [2] (setting [8]) and more than 10000 nM in experiment [3].
Take `C[C@@H]1CCN(C(=O)c2csc(N)n2)C[C@H]1c1cc(C(F)F)nc2ncnn12` [Compound 158]: the IC50 in experiment [1] (setting [4]) is 64.6 nM; in experiment [1], 64.6 nM; in experiment [2] (setting [6]), 2140 nM; in experiment [3], more than 10000 nM. Besides, the Emax in experiment [1] (human recombinant PDE2A) was determined as 100%; in experiment [1] it was 100%; in experiment [2] (setting [5]), 78%; in experiment [3], 19%.
Take `COc1c(C)cc(C(=O)N2CC[C@@H](C)[C@@](F)(c3cc(C(F)F)nc4ncnn34)C2)cc1C` [Compound 75]: the IC50 in experiment [1] (setting [4]) was 2950 nM; in experiment [1], 2950 nM; in experiment [2] (setting [6]) it was more than 10000 nM; in experiment [3], more than 10000 nM. Moreover, the Emax in experiment [1] (human recombinant PDE2A) worked out at 81%; in experiment [1], 81%; in experiment [2] (setting [5]) it was 27%; in experiment [3], 22%.
Regarding `C[C@@H]1CCN(C(=O)c2cccnc2N)C[C@H]1c1cc(C(F)F)nc2ncnn12` [Compound 150], the IC50 in experiment [1] (setting [4]) was 39.8 nM; in experiment [1], 39.8 nM; in experiment [2] (setting [6]), 3550 nM; in experiment [3], more than 10000 nM. In addition, the Emax in experiment [1] (human recombinant PDE2A) stood at 100%; in experiment [1], 100%; in experiment [2] (setting [5]), 72%; in experiment [3], 22%.
Consider `O=C(c1ccc(OC(F)(F)F)c(F)c1)N1[C@H]2CC[C@H](c3cc(C(F)F)nc4ncnn34)[C@@H]1CC2` [Compound 342], for which the Emax is 100% in experiment [1], 77% in experiment [2] (setting [7]) and 69% in experiment [3]. Moreover, the IC50 in experiment [1] is 32.4 nM; in experiment [2] (setting [8]), 2690 nM; in experiment [3] it was 4470 nM.
On to `C[C@@H]1CCN(C(=O)c2cc(C(C)(C)C)on2)C[C@H]1c1cc(C(F)F)nc2ncnn12` [Compound 258], for which the Emax in experiment [1] was 99%; in experiment [2] (setting [5]) it was 90%; in experiment [2] (setting [7]), 90%; in experiment [3], 89%. For the same compound, the IC50 in experiment [1] was 151 nM; in experiment [2] (setting [6]), 1260 nM; in experiment [2] (setting [8]), 1260 nM; in experiment [3] it was 1550 nM.
As for `O=C(c1cc2n(n1)CCO2)N1[C@H]2CC[C@H](c3cc(C(F)F)nc4ncnn34)[C@@H]1CC2` [Compound 367], the figures for the Emax in experiment [1], in experiment [2] (setting [7]) and in experiment [3] were 97%, 44% and 21%, respectively. Further, the IC50 in experiment [1] is 437 nM; in experiment [2] (setting [8]), more than 10000 nM; in experiment [3], more than 10000 nM.
As for `Cc1csc2ccc(C(=O)N3CC[C@@H](C)[C@H](c4cc(C(F)F)nc5ncnn45)C3)nc12` [Compound 100], the IC50 in experiment [1] (setting [4]) is 0.661 nM; in experiment [1], 0.661 nM; in experiment [2] (setting [6]), 16.2 nM; in experiment [3], 269 nM. Besides, the Emax was found to be 101% in experiment [1] (human recombinant PDE2A), 101% in experiment [1], 100% in experiment [2] (setting [5]) and 99% in experiment [3].
For `C[C@@H]1CCN(C(=O)c2ncc(C#N)cc2Cl)C[C@H]1c1cc(C(F)F)nc2ncnn12` [Compound 238], the figures for the IC50 in experiment [1] (setting [4]), in experiment [1] and in experiment [3] were 380 nM, 380 nM and more than 10000 nM, respectively. Moreover, the Emax in experiment [1] (human recombinant PDE2A) stood at 94%; in experiment [1], 94%; in experiment [2] (setting [5]), 48%; in experiment [2] (setting [7]) it was 48%; in experiment [3], 35%.
For the compound `Cc1ccc(C(=O)N2[C@H]3CC[C@H](c4cc(C(F)F)nc5ncnn45)[C@@H]2CC3)o1` [Compound 354], the results for the Emax in experiment [1], in experiment [2] (setting [7]) and in experiment [3] were 100%, 70% and 45%, respectively. In addition, the values for the IC50 in experiment [1], in experiment [2] (setting [8]) and in experiment [3] were 89.1 nM, 4470 nM and 9770 nM, respectively.
As to `Cc1ccc(F)c(C(=O)N2CC[C@@H](C)[C@@H](c3cc(C(F)F)nc4ncnn34)C2)n1` [Compound 222], the IC50 is 282 nM in experiment [1] (setting [4]); 282 nM in experiment [1]; 6760 nM in experiment [2] (setting [6]); 6760 nM in experiment [2] (setting [8]); more than 10000 nM in experiment [3]. In addition, the Emax in experiment [1] (human recombinant PDE2A) amounted to 98%; in experiment [1], 98%; in experiment [2] (setting [5]), 59%; in experiment [2] (setting [7]), 59%; in experiment [3] it was 13%.
